Like-named read-outs stand apart in the source and are kept apart here.
Columns and labels:
[1] = system: Pyricularia oryzae Carvara KA301; assay type: in vivo; settings: for RCV (Fungicidal Activities, C.V.): Rice Blast
Botrytis cinerae = experiment: Fungicidal activity against Cucumber Gray Mold Rot (CGM) disease; assay type: in vivo; settings: for CGM (Fungicidal Activities, C.V.): Cucumber Gray Mold Rot, concentration 50 ppm; for Fungicidal Activities CGM (C.V.): 50 ppm
Phytophthora infestans = assay type: in vivo; settings: for TLB (Fungicidal Activities, C.V.): Tomato Late Blight
Puccinia recondita = experiment: Fungicidal activity against Wheat Leaf Rust (WLR) disease; assay type: in vivo; settings: for WLR (Fungicidal Activities, C.V.): Wheat Leaf Rust
Erysiphae graminis = experiment: Fungicidal activity against Barley Powdery Mildew (BPM) disease; assay type: in vivo; settings: for BPM (Fungicidal Activities, C.V.): Barley Powdery Mildew
Rhizoctonia solani AG-1 = experiment: Fungicidal activity against Rice Sheath Blight (RSB) disease; settings: for RSB (Fungicidal Activities, C.V.): Rice Sheath Blight

| Compound | RCV (Fungicidal Activities, C.V.) ([1]; concentration 2 ppm) [%] | RCV (Fungicidal Activities, C.V.) ([1]; concentration 50 ppm) [%] | CGM (Fungicidal Activities, C.V.) (Botrytis cinerae) [%] | TLB (Fungicidal Activities, C.V.) (Phytophthora infestans; concentration 50 ppm) [%] | WLR (Fungicidal Activities, C.V.) (Puccinia recondita; concentration 2 ppm) [%] | WLR (Fungicidal Activities, C.V.) (Puccinia recondita; concentration 10 ppm) [%] | WLR (Fungicidal Activities, C.V.) (Puccinia recondita; concentration 50 ppm) [%] | BPM (Fungicidal Activities, C.V.) (Erysiphae graminis; concentration 2 ppm) [%] | BPM (Fungicidal Activities, C.V.) (Erysiphae graminis; concentration 10 ppm) [%] | BPM (Fungicidal Activities, C.V.) (Erysiphae graminis; concentration 50 ppm) [%] | RSB (Fungicidal Activities, C.V.) (Rhizoctonia solani AG-1; concentration 2 ppm) [%] | RSB (Fungicidal Activities, C.V.) (Rhizoctonia solani AG-1; concentration 50 ppm) [%] | Fungicidal Activities RCV (C.V.) ([1]; 50 ppm) [%] | Fungicidal Activities CGM (C.V.) (Botrytis cinerae) [%] | Fungicidal Activities TLB (C.V.) (Phytophthora infestans; 50 ppm) [%] | Fungicidal Activities WLR (C.V.) (Puccinia recondita; 2 ppm) [%] | Fungicidal Activities WLR (C.V.) (Puccinia recondita; 50 ppm) [%] | Fungicidal Activities BPM (C.V.) (Erysiphae graminis; 2 ppm) [%] | Fungicidal Activities BPM (C.V.) (Erysiphae graminis; 50 ppm) [%] | Fungicidal Activities RSB (C.V.) (Rhizoctonia solani AG-1; 50 ppm) [%] | further results |
| --- | --- | --- | --- | --- | --- | --- | --- | --- | --- | --- | --- | --- | --- | --- | --- | --- | --- | --- | --- | --- | --- |
| CON=C(C(=O)OC)c1ccccc1CON=C(C)c1cccc(OC(F)=Cc2cc(C)cc(C)c2)c1 [Compound 68] | 100 | 100 | 56 | 20 | 99 | 100 | 100 | 100 | 100 | 100 | 30 | 100 | – | – | – | – | – | – | – | – | RCV (Fungicidal Activities, C.V.) ([1]; concentration 10 ppm): 100%; RSB (Fungicidal Activities, C.V.) (Rhizoctonia solani AG-1; concentration 10 ppm): 70% |
| CON=C(C(=O)OC)c1ccccc1CON=C(C)c1cccc(OC(F)=Cc2ccc(OC)cc2)c1 [Compound 72] | 100 | 98 | 0 | 66 | 98 | – | 100 | 100 | – | 100 | 25 | 65 | – | – | – | – | – | – | – | – | TLB (Fungicidal Activities, C.V.) (Phytophthora infestans; concentration 2 ppm): 0% |
| COC=C(C(=O)OC)c1ccccc1CON=C(C)c1cccc(OC(F)=C(c2ccc(Br)cc2)C(F)(F)F)c1 [Compound 165] | – | – | – | – | – | – | – | – | – | – | – | – | 80 | 68 | 6 | 86 | 100 | 71 | 100 | 45 | Fungicidal Activities WLR (C.V.) (Puccinia recondita; 10 ppm): 96%; Fungicidal Activities BPM (C.V.) (Erysiphae graminis; 10 ppm): 99% |
| CNC(=O)C(=NOC)c1ccccc1CON=C(C)c1cccc(OC(F)=C(c2ccc(F)cc2)C(F)(F)F)c1 [Compound 199] | – | – | – | – | – | – | – | – | – | – | – | – | 100 | 80 | 60 | 99 | 100 | 100 | 100 | 100 | Fungicidal Activities RCV (C.V.) ([1]; 2 ppm): 100%; Fungicidal Activities TLB (C.V.) (Phytophthora infestans; 2 ppm): 12%; Fungicidal Activities RSB (C.V.) (Rhizoctonia solani AG-1; 2 ppm): 35% |
| CNC(=O)C(=NOC)c1ccccc1CON=C(C)c1cccc(OC(F)=Cc2ccc(F)cc2)c1 [Compound 82] | 100 | 96 | 82 | 84 | 100 | – | 100 | 100 | – | 100 | 55 | 85 | – | – | – | – | – | – | – | – | TLB (Fungicidal Activities, C.V.) (Phytophthora infestans; concentration 2 ppm): 85% |
| CON=C(C(=O)OC)c1ccccc1CON=C(C)c1cccc(OC(F)=Cc2cccc(Cl)c2)c1 [Compound 75] | 100 | 100 | 0 | 66 | 98 | – | 100 | 100 | – | 100 | 25 | 100 | – | – | – | – | – | – | – | – | TLB (Fungicidal Activities, C.V.) (Phytophthora infestans; concentration 2 ppm): 0% |
| CNC(=O)C(=NOC)c1ccccc1CON=Cc1cccc(OC(F)=C(c2cccc(OC)c2)C(F)(F)F)c1 [Compound 143] | 83 | 100 | 0 | 0 | 36 | – | 90 | 0 | – | 93 | – | 58 | – | – | – | – | – | – | – | – | – |
| CON=C(C(=O)OC)c1ccccc1CON=C(C)c1cccc(OC(F)=C(c2cccc(Cl)c2)C(F)(F)F)c1 [Compound 184] | – | – | – | – | – | – | – | – | – | – | – | – | 96 | 0 | 50 | 98 | 99 | 99 | 100 | 85 | Fungicidal Activities RCV (C.V.) ([1]; 2 ppm): 90%; Fungicidal Activities TLB (C.V.) (Phytophthora infestans; 2 ppm): 0%; Fungicidal Activities RSB (C.V.) (Rhizoctonia solani AG-1; 2 ppm): 20% |
| COC=C(C(=O)OC)c1ccccc1CON=Cc1cccc(OC(F)=Cc2ccc(C)cc2)c1 [Compound 3] | 0 | 100 | 46 | 84 | 96 | 98 | 100 | 86 | 99 | 100 | – | 60 | – | – | – | – | – | – | – | – | RCV (Fungicidal Activities, C.V.) ([1]; concentration 10 ppm): 80% |
| COC=C(C(=O)OC)c1ccccc1CON=C(C)c1cccc(OC(F)=C(c2cccc(OC)c2)C(F)(F)F)c1 [Compound 157] | 33 | 93 | 68 | 6 | 98 | 100 | 100 | 97 | 99 | 100 | – | 60 | – | – | – | – | – | – | – | – | RCV (Fungicidal Activities, C.V.) ([1]; concentration 10 ppm): 76% |
| CO/C=C(/C(=O)OC)c1ccccc1CON=C(C)c1cccc(OC(F)=Cc2ccccc2)c1 [Compound 40, Methyl (2E)-3-Methoxy-2-{2′-[[[3″-(1′″-fluoro-2′″-phenyl-1′″-ethenyloxy)phenyl]methylimino]oxy]methylphenyl}propenoate] | 99 | 100 | 75 | 97 | 99 | 100 | 100 | 100 | 100 | 100 | 70 | 95 | – | – | – | – | – | – | – | – | RCV (Fungicidal Activities, C.V.) ([1]; concentration 10 ppm): 100%; TLB (Fungicidal Activities, C.V.) (Phytophthora infestans; concentration 2 ppm): 12%; TLB (Fungicidal Activities, C.V.) (Phytophthora infestans; concentration 10 ppm): 68%; RSB (Fungicidal Activities, C.V.) (Rhizoctonia solani AG-1; concentration 10 ppm): 75% |
| CCOc1ccc(C(=C(F)Oc2cccc(C=NOCc3ccccc3C(=NOC)C(=O)NC)c2)C(F)(F)F)cc1 [Compound 144] | 88 | 96 | 0 | 0 | – | – | 86 | 0 | – | 95 | – | 47 | – | – | – | – | – | – | – | – | – |
| COC=C(C(=O)OC)c1ccccc1CON=Cc1cccc(OC(F)=C(c2ccc(OC)cc2)C(F)(F)F)c1 [Compound 111] | – | 0 | 17 | 0 | 80 | 95 | 98 | 95 | 100 | 100 | – | 0 | – | – | – | – | – | – | – | – | – |
| CON=C(C(=O)OC)c1ccccc1CON=C(C)c1cccc(OC(F)=C(c2ccc(OC)cc2)C(F)(F)F)c1 [Compound 181] | – | – | – | – | – | – | – | – | – | – | – | – | 95 | 77 | 30 | 83 | 99 | 83 | 100 | 45 | Fungicidal Activities RCV (C.V.) ([1]; 2 ppm): 98%; Fungicidal Activities TLB (C.V.) (Phytophthora infestans; 2 ppm): 68%; Fungicidal Activities RSB (C.V.) (Rhizoctonia solani AG-1; 2 ppm): 35% |
| CON=C(C(=O)OC)c1ccccc1CON=C(C)c1cccc(OC(F)=C(c2ccc3c(c2)OCO3)C(F)(F)F)c1 [Compound 190] | – | – | – | – | – | – | – | – | – | – | – | – | 93 | 0 | 0 | 93 | 100 | 91 | 100 | 65 | Fungicidal Activities RCV (C.V.) ([1]; 2 ppm): 66%; Fungicidal Activities TLB (C.V.) (Phytophthora infestans; 2 ppm): 0%; Fungicidal Activities RSB (C.V.) (Rhizoctonia solani AG-1; 2 ppm): 15% |
| COC=C(C(=O)OC)c1ccccc1CON=C(C)c1cccc(OC(F)=C(c2cc(C)cc(C)c2)C(F)(F)F)c1 [Compound 154] | – | 16 | 58 | 12 | 73 | 96 | 98 | 68 | 98 | 100 | 25 | 90 | – | – | – | – | – | – | – | – | RSB (Fungicidal Activities, C.V.) (Rhizoctonia solani AG-1; concentration 10 ppm): 35% |

Source: patent US6552080B1, “Fungicidal compounds having a fluorovinyl-or fluoropropenyl-oxyphenyloxime moiety and process for the preparation thereof” (Korea Research Institute of Chemical Technology, priority 1999, dated 2003)
